For series [1], the target named is T1, BsLonBA (Bacillus subtilis, UniProt P42425).
T1 construct: gene lon2; P domain, residues 347–552 (crystal); full-length BsLonBA-H6 (IC50)
The series is described as follows: IC50 from PepTBE peptidase assay of full-length enzyme. It counts as biochemical.

The target of series [2] is T2, EcLonA (Escherichia coli, UniProt P0A9M0).
T2 construct: gene lon; EcLonA-H6 (C-terminal hexahistidine tag)
The series is described as follows: inhibition of PepTBE hydrolysis (peptidase assay, DTDP detection); also suppresses β-casein proteolysis. It counts as biochemical.

Series [3] deals with the molecule itself. The series is described as follows: crystal structure; P domain with bortezomib (molar ratio 1:6), 10 mM MgCl2, hanging drop, 35% PEG400 pH 7.8; space group P6_(3), two molecules in the asymmetric unit, hexamer by the crystallographic 3-fold axis; 1.9 Å.
Series [4] deals with the molecule itself. The series is described as follows: SEC; HiPrep 26/60 Sephacryl S-200 HR sizing column before crystallization, 25 mM Tris pH 7.5, 200 mM NaCl, 2 mM TCEP, 4-8 °C; no bortezomib. In general terms: SEC sorts molecules by how far they enter the pores of the column.

The source of these data is paper PMC9569914, “Unique Structural Fold of LonBA Protease from Bacillus subtilis, a Member of a Newly Identified Subfamily of Lon Proteases” (International Journal of Molecular Sciences, 2022).

T1 sequence (P42425 whole entry, the tested form may be a part): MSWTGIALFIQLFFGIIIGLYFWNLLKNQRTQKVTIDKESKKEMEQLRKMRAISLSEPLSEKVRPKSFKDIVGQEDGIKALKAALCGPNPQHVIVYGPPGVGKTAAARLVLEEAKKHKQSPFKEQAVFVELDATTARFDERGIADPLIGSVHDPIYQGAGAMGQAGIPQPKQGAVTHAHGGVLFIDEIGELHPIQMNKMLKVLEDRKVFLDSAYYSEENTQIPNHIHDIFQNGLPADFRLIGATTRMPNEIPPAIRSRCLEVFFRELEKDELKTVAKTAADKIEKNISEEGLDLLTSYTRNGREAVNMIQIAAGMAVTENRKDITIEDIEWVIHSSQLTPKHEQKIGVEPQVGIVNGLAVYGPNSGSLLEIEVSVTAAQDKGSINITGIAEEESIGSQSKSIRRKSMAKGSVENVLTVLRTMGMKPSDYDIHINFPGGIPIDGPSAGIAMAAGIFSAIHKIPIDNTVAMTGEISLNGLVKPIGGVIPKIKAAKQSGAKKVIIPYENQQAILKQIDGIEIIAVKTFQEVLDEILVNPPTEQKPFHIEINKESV
T2 sequence (P0A9M0 2-784): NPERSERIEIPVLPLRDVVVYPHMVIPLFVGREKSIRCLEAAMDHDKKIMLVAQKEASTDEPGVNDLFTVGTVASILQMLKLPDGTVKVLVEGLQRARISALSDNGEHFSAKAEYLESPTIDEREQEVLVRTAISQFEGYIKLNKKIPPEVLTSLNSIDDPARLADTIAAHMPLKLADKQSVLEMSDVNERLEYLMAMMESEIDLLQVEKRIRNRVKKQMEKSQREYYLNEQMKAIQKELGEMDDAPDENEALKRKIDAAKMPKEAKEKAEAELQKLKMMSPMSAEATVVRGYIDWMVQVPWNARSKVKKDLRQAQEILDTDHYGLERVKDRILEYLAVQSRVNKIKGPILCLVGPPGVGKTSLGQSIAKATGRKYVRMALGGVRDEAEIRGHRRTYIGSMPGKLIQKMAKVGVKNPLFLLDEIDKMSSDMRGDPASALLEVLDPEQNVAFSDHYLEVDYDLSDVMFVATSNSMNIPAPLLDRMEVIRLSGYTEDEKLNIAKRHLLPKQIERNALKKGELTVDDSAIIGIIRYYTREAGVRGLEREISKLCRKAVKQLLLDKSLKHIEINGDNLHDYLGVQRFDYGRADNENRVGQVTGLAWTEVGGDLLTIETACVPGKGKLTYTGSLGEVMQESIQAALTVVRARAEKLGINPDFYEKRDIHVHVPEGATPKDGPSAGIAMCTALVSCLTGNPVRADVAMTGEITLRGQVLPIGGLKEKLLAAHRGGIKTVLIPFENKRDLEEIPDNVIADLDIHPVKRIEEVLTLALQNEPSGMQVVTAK

Consider `CC(C)C[C@H](NC(=O)[C@H](Cc1ccccc1)NC(=O)c1cnccn1)B(O)O` [bortezomib], for which the IC50 – broadly, the midpoint of a concentration-inhibition curve – in series [1] is 1150 nM; in series [2], 50 nM.

B1: P domain of BsLonBA (residues 347-552) (domain or fragment, Bacillus subtilis strain 168, UniProt P42425 347-552, looked up)
chain: GVEPQVGIVNGLAVYGPNSGSLLEIEVSVTAAQDKGSINITGIAEEESIGSQSKSIRRKSMAKGSVENVLTVLRTMGMKPSDYDIHINFPGGIPIDGPSAGIAMAAGIFSAIHKIPIDNTVAMTGEISLNGLVKPIGGVIPKIKAAKQSGAKKVIIPYENQQAILKQIDGIEIIAVKTFQEVLDEILVNPPTEQKPFHIEINKESV
modifications: bortezomib covalently bound to the Oγ of Ser445 via the boronate moiety (in the crystal only; added after the sizing column)
notes: LonBA protease (previously assigned as LonB) of Bacillus subtilis strain 168, protease (P) domain, residues Gly347-Val552 of the 552-residue enzyme; catalytic dyad Ser445 and Lys488; Dimer on the sizing column, hexamer in the crystal by crystallographic symmetry (two chains in the asymmetric unit); Modelled in the maps: residues 352-547 in chain A and 348-535 in chain B; also called protease …
For the molecule B1, the stoichiometry N (in general, a count of units in the complex or per binding partner) in series [3] turned out to be 6; in series [4], 2.
